From EP0199524B1, “Platinum tramine antitumor agents” (ENGELHARD CORPORATION, priority 1985, dated 1986)
“And” between values parts separate entries of the source, which are not always exact repeats. Identical values can stand only once.

Tested on: not given
Assay: not given
Conditions: literature statement on charged platinum species; cited from earlier work

Row | Structure (SMILES) | antitumor activity
1 | [Cl][Pt-2]([Cl])([Cl])[Cl].[K+].[K+] [K₂PtCl₄] | completely inactive
2 | N.N.N.N.[Cl][Pt][Cl] [[Pt(NH₃)₄]Cl₂] | completely inactive

Tested on: S180 ascites
Assay: Screening for anti-tumor activity against S180 ascites (S180a) in mice
Format: in vivo, female CFW Swiss mice
Conditions: 8 mg/kg in saline, positive control run with each experiment, S180a in mice
Procedure: The compounds were evaluated for anti-tumor activity against S180 ascites in female CFW Swiss mice by the following procedure: CFW mice, averaging 20g, are immediately inspected and placed in newly prepared cages. On day zero the mice are inoculated with 0.2 ml. of a freshly prepared saline suspension (0.15 M NaCl) containing 1 x 10⁷ tumor cells/ml, or a total of 2 x 10⁶ cells. This inoculum is freshly prepared using "transfer" mice which have been injected with tumor cells the previous week. This inoculum is the end-product of a series of steps which involves (1) the removal of the cells from the peritoneal cavity of the sacrificed transfer mouse, (2) alternate centrifugation-washing (2-3 times with cold saline) to remove occasional blood and other undesirable components, and finally (3) dilution (1:3) of the packed cell volume with saline (the final centrifugation being carried out at 1,000 rpm for 2 min.). A cell count is made on a 2,000-fold dilution of this 1:3 suspension by means of a Coulter Counter. A final dilution to 1 x 10⁷ cells/ml. is made based on the averaged count. On day 1, solutions of the test compounds are prepared and the mice injected, with each mouse of a set of six being injected with the same test compound at the same dose level.
ILS values above 50% represent significant activity; those above 75% represent excellent activity.

Row | Structure (SMILES) | Positive Control 30-Day Survivors | Positive Control %ILS
3 | N.N.[Cl][Pt][Cl] [cis-[Pt(NH3)2Cl2], cis-diamminedichloroplatinum(II), reference compound] | 2/6 and 4/6 and 1/6 and 3/6 and 2/7 | 79% and 66% and 80% and 94% and 73% and 72% and 98%

Same assay, conditions: Dose 5 mg/kg, medium H2O, S180a in mice, survivors/mice in set

Row | Structure (SMILES) | 30-Day Survivors
4 | N.N.[Cl-].[Cl][Pt+].c1ccncc1 [Example 18, Trans-Chlorodiamminepyridineplatinum(II) Chloride] | 0/6
5 | N.N.Oc1ccccn1.[Cl-].[Cl][Pt+] [Example 2, Cis-Chlorodiammine-2-hydroxypyridineplatinum(II) Chloride] | 0/6
6 | N.N.[Cl-].[Cl][Pt+].c1ccncc1 [Example 1, Cis-Chlorodiamminepyridineplatinum(II) Chloride] | 0/6

Same assay, conditions: Dose 5 mg/kg, medium H2O, injected day 1, S180a in mice, upper limit 100%

Row | Structure (SMILES) | %ILS [%]
7 | N.N.Oc1ccccn1.[Cl-].[Cl][Pt+] [Example 2, Cis-Chlorodiammine-2-hydroxypyridineplatinum(II) Chloride] | 15

Same assay, conditions: Dose 5 mg/kg, medium H2O, injected day 1, S180a in mice, upper limit 100%; 5 mg/kg

Row | Structure (SMILES) | %ILS [%]
8 | N.N.[Cl-].[Cl][Pt+].c1ccncc1 [Example 18, Trans-Chlorodiamminepyridineplatinum(II) Chloride] | 2
9 | N.N.[Cl-].[Cl][Pt+].c1ccncc1 [Example 1, Cis-Chlorodiamminepyridineplatinum(II) Chloride] | 19

Same assay, conditions: Dose 10 mg/kg, medium H2O, S180a in mice, survivors/mice in set

Row | Structure (SMILES) | 30-Day Survivors
10 | N.N.[Cl-].[Cl][Pt+].c1ccncc1 [Example 18, Trans-Chlorodiamminepyridineplatinum(II) Chloride] | 0/6
11 | N.N.Oc1ccccn1.[Cl-].[Cl][Pt+] [Example 2, Cis-Chlorodiammine-2-hydroxypyridineplatinum(II) Chloride] | 0/6
12 | N.N.[Cl-].[Cl][Pt+].c1ccncc1 [Example 1, Cis-Chlorodiamminepyridineplatinum(II) Chloride] | 0/6

Same assay, conditions: Dose 10 mg/kg, medium H2O, injected day 1, S180a in mice, upper limit 100%

Row | Structure (SMILES) | %ILS [%]
13 | N.N.Oc1ccccn1.[Cl-].[Cl][Pt+] [Example 2, Cis-Chlorodiammine-2-hydroxypyridineplatinum(II) Chloride] | 15

Same assay, conditions: Dose 10 mg/kg, medium H2O, injected day 1, S180a in mice, upper limit 100%; 10 mg/kg

Row | Structure (SMILES) | %ILS [%]
14 | N.N.[Cl-].[Cl][Pt+].c1ccncc1 [Example 18, Trans-Chlorodiamminepyridineplatinum(II) Chloride] | 7

Same assay, conditions: Dose 20 mg/kg, medium H2O, S180a in mice, survivors/mice in set

Row | Structure (SMILES) | 30-Day Survivors
15 | N.N.[Cl-].[Cl][Pt+].c1ccncc1 [Example 18, Trans-Chlorodiamminepyridineplatinum(II) Chloride] | 0/6
16 | N.N.Oc1ccccn1.[Cl-].[Cl][Pt+] [Example 2, Cis-Chlorodiammine-2-hydroxypyridineplatinum(II) Chloride] | 0/6
17 | N.N.[Cl-].[Cl][Pt+].c1ccncc1 [Example 1, Cis-Chlorodiamminepyridineplatinum(II) Chloride] | 1/6 and 0/6

Same assay, conditions: Dose 20 mg/kg, medium H2O, injected day 1, S180a in mice, upper limit 100%

Row | Structure (SMILES) | %ILS [%]
18 | N.N.Oc1ccccn1.[Cl-].[Cl][Pt+] [Example 2, Cis-Chlorodiammine-2-hydroxypyridineplatinum(II) Chloride] | 28

Same assay, conditions: Dose 20 mg/kg, medium H2O, injected day 1, S180a in mice, upper limit 100%; 20 mg/kg

Row | Structure (SMILES) | %ILS
19 | N.N.[Cl-].[Cl][Pt+].c1ccncc1 [Example 18, Trans-Chlorodiamminepyridineplatinum(II) Chloride] | 6%
20 | N.N.[Cl-].[Cl][Pt+].c1ccncc1 [Example 1, Cis-Chlorodiamminepyridineplatinum(II) Chloride] | 73% and 70%

Same assay, conditions: Dose 40 mg/kg, medium H2O, S180a in mice, survivors/mice in set

Row | Structure (SMILES) | 30-Day Survivors
21 | N.N.[Cl-].[Cl][Pt+].c1ccncc1 [Example 18, Trans-Chlorodiamminepyridineplatinum(II) Chloride] | 0/6
22 | N.N.Oc1ccccn1.[Cl-].[Cl][Pt+] [Example 2, Cis-Chlorodiammine-2-hydroxypyridineplatinum(II) Chloride] | 4/6 and 2/6
23 | N.N.[Cl-].[Cl][Pt+].c1ccncc1 [Example 1, Cis-Chlorodiamminepyridineplatinum(II) Chloride] | 4/6 and 6/6

Same assay, conditions: Dose 40 mg/kg, medium H2O, injected day 1, S180a in mice, upper limit 100%; 40 mg/kg

Row | Structure (SMILES) | %ILS
24 | N.N.[Cl-].[Cl][Pt+].c1ccncc1 [Example 18, Trans-Chlorodiamminepyridineplatinum(II) Chloride] | 15%
25 | N.N.Oc1ccccn1.[Cl-].[Cl][Pt+] [Example 2, Cis-Chlorodiammine-2-hydroxypyridineplatinum(II) Chloride] | 95% and 78%
26 | N.N.[Cl-].[Cl][Pt+].c1ccncc1 [Example 1, Cis-Chlorodiamminepyridineplatinum(II) Chloride] | 91% and 100%

Same assay, conditions: Dose 40 mg/kg, medium H2O, injected day 1, S180a in mice, upper limit 100%; listed as Cis-[Pt(NH₃)₂(py)Cl]Cl, 40 mg/kg

Row | Structure (SMILES) | %ILS [%]
27 | N.N.[Cl-].[Cl][Pt+].c1ccncc1 [Example 1, Cis-Chlorodiamminepyridineplatinum(II) Chloride] | 100

Same assay, conditions: Dose 80 mg/kg, medium H2O, S180a in mice, survivors/mice in set

Row | Structure (SMILES) | 30-Day Survivors
28 | N.N.[Cl-].[Cl][Pt+].c1ccncc1 [Example 18, Trans-Chlorodiamminepyridineplatinum(II) Chloride] | 0/6
29 | N.N.Oc1ccccn1.[Cl-].[Cl][Pt+] [Example 2, Cis-Chlorodiammine-2-hydroxypyridineplatinum(II) Chloride] | 4/6 and 2/6
30 | N.N.[Cl-].[Cl][Pt+].c1ccncc1 [Example 1, Cis-Chlorodiamminepyridineplatinum(II) Chloride] | 0/6 and 4/6

Same assay, conditions: Dose 80 mg/kg, medium H2O, injected day 1, S180a in mice, upper limit 100%; 80 mg/kg

Row | Structure (SMILES) | %ILS
31 | N.N.[Cl-].[Cl][Pt+].c1ccncc1 [Example 18, Trans-Chlorodiamminepyridineplatinum(II) Chloride] | 26%
32 | N.N.Oc1ccccn1.[Cl-].[Cl][Pt+] [Example 2, Cis-Chlorodiammine-2-hydroxypyridineplatinum(II) Chloride] | 91% and 80%

Same assay, conditions: Dose 160 mg/kg, medium H2O, S180a in mice, survivors/mice in set

Row | Structure (SMILES) | 30-Day Survivors
33 | N.N.[Cl-].[Cl][Pt+].c1ccncc1 [Example 18, Trans-Chlorodiamminepyridineplatinum(II) Chloride] | 0/6
34 | N.N.Oc1ccccn1.[Cl-].[Cl][Pt+] [Example 2, Cis-Chlorodiammine-2-hydroxypyridineplatinum(II) Chloride] | 3/6
35 | N.N.[Cl-].[Cl][Pt+].c1ccncc1 [Example 1, Cis-Chlorodiamminepyridineplatinum(II) Chloride] | 0/6

Same assay, conditions: Dose 160 mg/kg, medium H2O, injected day 1, S180a in mice, upper limit 100%

Row | Structure (SMILES) | %ILS [%]
36 | N.N.Oc1ccccn1.[Cl-].[Cl][Pt+] [Example 2, Cis-Chlorodiammine-2-hydroxypyridineplatinum(II) Chloride] | 64

Same assay, conditions: Dose 160 mg/kg, medium H2O, injected day 1, S180a in mice, upper limit 100%; 160 mg/kg

Row | Structure (SMILES) | %ILS [%]
37 | N.N.[Cl-].[Cl][Pt+].c1ccncc1 [Example 18, Trans-Chlorodiamminepyridineplatinum(II) Chloride] | -70

Same assay, conditions: Dose 320 mg/kg, medium H2O, S180a in mice, survivors/mice in set

Row | Structure (SMILES) | 30-Day Survivors
38 | N.N.Oc1ccccn1.[Cl-].[Cl][Pt+] [Example 2, Cis-Chlorodiammine-2-hydroxypyridineplatinum(II) Chloride] | 0/6
39 | N.N.[Cl-].[Cl][Pt+].c1ccncc1 [Example 1, Cis-Chlorodiamminepyridineplatinum(II) Chloride] | 0/7

Same assay, conditions: Dose 320 mg/kg, medium H2O, injected day 1, S180a in mice, upper limit 100%

Row | Structure (SMILES) | %ILS [%]
40 | N.N.Oc1ccccn1.[Cl-].[Cl][Pt+] [Example 2, Cis-Chlorodiammine-2-hydroxypyridineplatinum(II) Chloride] | -74
41 | N.N.[Cl-].[Cl][Pt+].c1ccncc1 [Example 1, Cis-Chlorodiamminepyridineplatinum(II) Chloride] | -94

Same assay, conditions: Dose 640 mg/kg, medium H2O, S180a in mice, survivors/mice in set

Row | Structure (SMILES) | 30-Day Survivors
42 | N.N.Oc1ccccn1.[Cl-].[Cl][Pt+] [Example 2, Cis-Chlorodiammine-2-hydroxypyridineplatinum(II) Chloride] | 0/6

Same assay, conditions: Dose 640 mg/kg, medium H2O, injected day 1, S180a in mice, upper limit 100%

Row | Structure (SMILES) | %ILS [%]
43 | N.N.Oc1ccccn1.[Cl-].[Cl][Pt+] [Example 2, Cis-Chlorodiammine-2-hydroxypyridineplatinum(II) Chloride] | -77

Same assay, conditions: Dose 1280 mg/kg, medium H2O, S180a in mice, survivors/mice in set

Row | Structure (SMILES) | 30-Day Survivors
44 | N.N.Oc1ccccn1.[Cl-].[Cl][Pt+] [Example 2, Cis-Chlorodiammine-2-hydroxypyridineplatinum(II) Chloride] | 0/6

Same assay, conditions: Dose 1280 mg/kg, medium H2O, injected day 1, S180a in mice, upper limit 100%

Row | Structure (SMILES) | %ILS [%]
45 | N.N.Oc1ccccn1.[Cl-].[Cl][Pt+] [Example 2, Cis-Chlorodiammine-2-hydroxypyridineplatinum(II) Chloride] | -84

Same assay, conditions: under identical screening

Row | Structure (SMILES) | optimum activity (dose) [mg/kg]
46 | N.N.[Cl][Pt][Cl] [cis-[Pt(NH3)2Cl2], cis-diamminedichloroplatinum(II), reference compound] | 9 to 10
